Test results published in PubChem BioAssay (NCI).
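1) Cells in 96-well plates. 2) Compound, 48 h, 5 concentrations. 3) Linear interpolation between surrounding doses. 4) Unreached endpoint = highest concentration. GI50: concentration for 50% inhibition of growth. TGI: concentration producing complete growth inhibition.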

These compounds were tested on DU-145 prostate (assay: DTP human tumour cell line panel, 48 h).
With `COCCN1C(=O)C2c3[nH]c4ccccc4c3C3CCC(C(C)(C)C)CC3C2C1=O` (centres undefined) the TGI was 37.1 µM.
For `CCn1c2ccccc2c2cc(Nc3cc(C)[nH]c(=O)n3)ccc21`, the TGI was > 100 µM.
In the case of `C(#Cc1ccccc1)SC1=C(c2ccccc2)S/C(=C(\SC#Cc2ccccc2)c2ccccc2)S1`, the TGI is reported as > 100 µM.
With `COC(=O)c1cc(/C=C\c2cc(OC)ccc2OC)ccc1OC` the TGI was > 100 µM.
In the case of `Cc1ccc(S(=NS(=O)(=O)c2ccc(C)cc2)c2ccc(C)cc2)cc1`, the TGI is reported as > 100 µM.
For `O=C(Cc1ccccc1)NN1C(=O)/C(=C\c2ccccc2O)SC1=Nc1ccccc1`, the TGI was > 100 µM.
`O=C1c2cc([N+](=O)[O-])sc2C(=O)c2c([N+](=O)[O-])csc21` was tested, and the TGI was 3.07 µM.
With `CCOc1cc2c(cc1O)C(N)C[C@@H]1[C@@H]2CC[C@]2(C)[C@@H](O)CC[C@@H]12` (some centres undefined) the GI50 was > 100 µM and the TGI was > 100 µM.
In the case of `CC(C)C(NC(=O)C(Cc1ccccc1)NC(=O)[C@H]1CCC[C@H]1NC(=O)C(Cc1ccc(OC(C)(C)C)cc1)NC(=O)OC(C)(C)C)C(N)=O` (some centres undefined), the TGI is reported as > 100 µM.
`N#C/C(=C\c1ccc2[nH]ccc2c1)C(=O)c1ccc(O)c(O)c1` was tested, and the TGI was > 100 µM.
With `COc1ccc(CNc2nc3ccccc3nc2C(=O)O)cc1` the TGI was > 100 µM.
With `COc1ccc(-n2cnc3c(NC(Cc4ccccc4)C(=O)O)ncnc32)cc1` (centres undefined) the TGI was > 100 µM.
In the case of `CC(=O)OCC1OC(n2c(-c3ccccc3)c(N=Nc3ccc(C)cc3)c(C)c(C#N)c2=S)C(OC(C)=O)C(OC(C)=O)C1OC(C)=O` (centres undefined), the TGI is reported as > 100 µM.
For `CC(C)(C)C1=C(Br)C(OC(=O)C(F)(F)F)(C(C)(C)C)OP1(=O)c1ccccc1` (centres undefined), the TGI was > 100 µM.
With `NN/C(=N\S(=O)(=O)c1ccc(S(=O)(=O)c2ccccc2)s1)Nc1ccc(Cl)cc1` the TGI was 76.5 µM.
With `CC(C)(C)[Si](C)(C)OC[C@H](/C=C\CCCC(=O)O)NC1(c2ccccc2)c2ccccc2-c2ccccc21` the TGI was > 100 µM.
`CCOC(=O)C(C/C=C/CO)N(C)C(=O)OC(C)(C)C` (centres undefined) was tested, and the TGI was > 100 µM.
For `Cc1csc(-n2c(C)nc3cc(Cl)ccc3c2=O)n1`, the TGI was > 100 µM.

These compounds were tested on SNB-75 CNS (assay: DTP human tumour cell line panel, 48 h).
`COCCN1C(=O)C2c3[nH]c4ccccc4c3C3CCC(C(C)(C)C)CC3C2C1=O` (centres undefined) gave a TGI of 35.6 µM.
`O=c1c2ccccc2nc(-c2ccccc2)n1NC(=S)Nc1cccc(Cl)c1` was tested, and the TGI was 59.6 µM.
With `C(#Cc1ccccc1)SC1=C(c2ccccc2)S/C(=C(\SC#Cc2ccccc2)c2ccccc2)S1` the TGI was > 100 µM.
`CCOC(=O)C(C(=O)COC(C)(C)C)[C@@H]1C=C[C@H](OC(C)=O)C1` (some centres undefined) was tested, and the TGI was > 100 µM.
With `CCOC(=O)CC(NC(=O)c1ccc(N=NN(C)C)cc1)C(=O)OCC` (centres undefined) the TGI was > 100 µM.
For `CN(C)CN(C)c1nc(N(C)C)nc(N(C)CN(C)C)n1`, the TGI was > 100 µM.
With `O=C(Cc1ccccc1)NN1C(=O)/C(=C\c2ccccc2O)SC1=Nc1ccccc1` the TGI was > 100 µM.
For `O=c1[nH]nc(-c2ccccc2)n1-n1cnnc1`, the TGI was > 100 µM.
In the case of `CCCCCCCCCCCCOP(=O)(O)OP(=O)(O)OCC1OC(n2cc(C)c(=O)[nH]c2=O)CC1O` (centres undefined), the TGI is reported as > 100 µM.
In the case of `O=C1c2cc([N+](=O)[O-])sc2C(=O)c2c([N+](=O)[O-])csc21`, the TGI is reported as 3.18 µM.
With `CCOc1cc2c(cc1O)C(N)C[C@@H]1[C@@H]2CC[C@]2(C)[C@@H](O)CC[C@@H]12` (some centres undefined) the TGI was 95.4 µM.
With `Cc1ccc(S(=O)(=O)Nn2c(O)c(C#N)c(-c3ccc([N+](=O)[O-])cc3)c(C#N)c2=O)cc1` the TGI was > 100 µM.
In the case of `CC(C)[Si](OCC1CC(C#N)OC(C)(C)O1)(C(C)C)C(C)C` (centres undefined), the TGI is reported as > 100 µM.
`CC(C)C(NC(=O)C(Cc1ccccc1)NC(=O)[C@H]1CCC[C@H]1NC(=O)C(Cc1ccc(OC(C)(C)C)cc1)NC(=O)OC(C)(C)C)C(N)=O` (some centres undefined) showed a TGI of 29.2 µM.
`N#C/C(=C\c1ccc2[nH]ccc2c1)C(=O)c1ccc(O)c(O)c1` was tested, and the TGI was > 100 µM.
In the case of `CC(=O)Nc1ccc(-c2nnc(SCC(=O)Nc3ccc(Cl)cc3)o2)cc1`, the TGI is reported as 39.7 µM.
In the case of `COc1ccc2c([nH]c3c(O)c(-c4c(C)cc5c([nH]c6c(CC=C(C)C)c(OC)ccc65)c4O)c(C)cc32)c1CC=C(C)C`, the TGI is reported as > 100 µM.
`COc1ccc(CNc2nc3ccccc3nc2C(=O)O)cc1` was tested, and the TGI was > 100 µM.
For `COc1ccc(-n2cnc3c(NC(Cc4ccccc4)C(=O)O)ncnc32)cc1` (centres undefined), the TGI was > 100 µM.
In the case of `CC(C)(C)C1=C(Br)C(OC(=O)C(F)(F)F)(C(C)(C)C)OP1(=O)c1ccccc1` (centres undefined), the TGI is reported as > 100 µM.
With `CC(C)(C)[Si](C)(C)OC[C@H](/C=C\CCCC(=O)O)NC1(c2ccccc2)c2ccccc2-c2ccccc21` the TGI was > 100 µM.
`CCOC(=O)C(C/C=C/CO)N(C)C(=O)OC(C)(C)C` (centres undefined) was tested, and the TGI was > 100 µM.
In the case of `Cc1csc(-n2c(C)nc3cc(Cl)ccc3c2=O)n1`, the TGI is reported as > 100 µM.

What follows are compounds tested on CAKI-1 renal (assay: DTP human tumour cell line panel, 48 h).
Compound `COCCN1C(=O)C2c3[nH]c4ccccc4c3C3CCC(C(C)(C)C)CC3C2C1=O` (centres undefined) has a TGI of 37.6 µM.
In the case of `O=C(O)c1ccc(N/C(=C(/C(Cl)=C(Cl)Cl)[N+](=O)[O-])n2nnc3ccccc32)cc1`, the TGI is reported as > 100 µM.
For `O=c1c2ccccc2nc(-c2ccccc2)n1NC(=S)Nc1cccc(Cl)c1`, the TGI was > 100 µM.
`CCn1c2ccccc2c2cc(Nc3cc(C)[nH]c(=O)n3)ccc21` was tested, and the TGI was > 100 µM.
For `C(#Cc1ccccc1)SC1=C(c2ccccc2)S/C(=C(\SC#Cc2ccccc2)c2ccccc2)S1`, the TGI was > 100 µM.
In the case of `COC(=O)c1cc(/C=C\c2cc(OC)ccc2OC)ccc1OC`, the TGI is reported as > 100 µM.
In the case of `CCOC(=O)C(C(=O)COC(C)(C)C)[C@@H]1C=C[C@H](OC(C)=O)C1` (some centres undefined), the TGI is reported as > 100 µM.
For `CCOC(=O)CC(NC(=O)c1ccc(N=NN(C)C)cc1)C(=O)OCC` (centres undefined), the TGI was > 100 µM.
With `CN(C)CN(C)c1nc(N(C)C)nc(N(C)CN(C)C)n1` the TGI was > 100 µM.
In the case of `O=c1[nH]nc(-c2ccccc2)n1-n1cnnc1`, the TGI is reported as > 100 µM.
With `CCCCCCCCCCCCOP(=O)(O)OP(=O)(O)OCC1OC(n2cc(C)c(=O)[nH]c2=O)CC1O` (centres undefined) the TGI was > 100 µM.
Work on `O=C1c2cc([N+](=O)[O-])sc2C(=O)c2c([N+](=O)[O-])csc21` yielded a TGI of 2.48 µM.
